Here are results for 60 compounds from the METLIN SMRT retention time set (Domingo-Almenara et al. 2019).

Each structure is given as a SMILES string.

This series in a line: gradient 5% acetonitrile 3 min, to 50% in 2 min, to 85% in 15 min, held 3 min, 100 µL/min. As to conditions: column: Zorbax Extend-C18 2.1 x 50 mm; eluents: water / acetonitrile, 0.1% formic acid. The method in brief:
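A Zorbax Extend-C18 column (2.1 × 50 mm, 1.8 μm) run at 100 μL/min with water and acetonitrile, both containing 0.1% formic acid, separated mixtures of ~100 pure standards. The HPLC was coupled to a quadrupole time-of-flight mass spectrometer operated in positive and negative ionization mode, with dead and dwell volumes of 40 μL and 900 μL. Each retention time was taken from a computationally picked adduct peak that was then manually inspected.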
For `CCn1nccc1C(=O)N1CC(Oc2ccc(-c3nc(C)no3)cc2)C1`, the RP-LC retention time amounted to 800 s.

For the compound `COc1ccccc1-c1nc(Cn2ccnc2)no1`, the RP-LC retention time came out at 580 s.

On to `O=C(Cn1ccnc1-c1ccnc(N2CCCCC2)c1)NC1CCCCC1`, for which the RP-LC retention time was 624 s.

`O=C(Cn1c(C2CCCO2)nc2ccccc21)NCc1cccs1` (stereo not given) showed an RP-LC retention time of 615 s.

In turn, `C=CCSc1nc2ccccc2c2nc(C)nn12` yielded an RP-LC retention time of 982 s.

`O=C(CC1CCN(C(=O)Nc2ccc(Br)cc2)CC1)N1CCCCC1` gave an RP-LC retention time of 830 s.

Take `CCc1nnc(C2CCN(C(=O)c3ccc(F)cc3F)CC2)s1`: the RP-LC retention time amounted to 770 s.

The compound `Cc1ccc(NC(=O)C2CCN(S(=O)(=O)c3c(C)[nH]c(C)c3C(=O)N3CCCC3)CC2)cc1C` showed an RP-LC retention time of 727 s.

In the case of `O=C(NCc1ccccc1Cl)C(=O)c1cn(CC(=O)N2CCCC2)c2ccccc12`, the RP-LC retention time was 968 s.

The compound `Cc1nc(-c2ccc(C(=O)N3CCOCC3)cc2)no1` gave an RP-LC retention time of 635 s.

Consider `CCc1ccc(S(=O)(=O)N2CCC(n3cnnc3C)CC2)cc1`, for which the RP-LC retention time turned out to be 715 s.

As for `CCC1CCCCN1CCNC(=O)Cn1c(=O)n(-c2ccccc2)c2ncccc21` (stereo not given), the RP-LC retention time came out at 597 s.

Regarding `Cc1ccc(CN2C(=O)NC3(CCN(C(=O)c4sccc4C)CC3)C2=O)cc1`, the RP-LC retention time was found to be 825 s.

On to `c1ccc(-c2noc(N3CCN(c4ccccn4)CC3)n2)cc1`, for which the RP-LC retention time was determined as 668 s.

Regarding `CCc1nc2cc(-c3noc(Cc4cc(OC)cc(OC)c4)n3)ccc2o1`, the RP-LC retention time turned out to be 1080 s.

Consider `CN(CC(=O)N1CCN(c2ccc(Cl)cc2)CC1)S(=O)(=O)c1c[nH]c(C(=O)N2CCCC2)c1`, for which the RP-LC retention time stood at 837 s.

Consider `CCn1nc(C)c2ccnc(N3CCC(C(=O)N4CCN(c5ccc(Cl)cc5)CC4)CC3)c21`, for which the RP-LC retention time was found to be 780 s.

`COC(=O)c1c2c(nc3ccccc13)CCN(C(=O)Nc1ccccc1OC)C2` yielded an RP-LC retention time of 820 s.

Take `COC(=O)CNC(=O)Nc1ncc(-c2ccccc2)n1C`: the RP-LC retention time was determined as 596 s.

In turn, `CCc1nc2ccccc2c(=O)n1Cc1noc(C2CC(=O)N(c3ccc(C)c(C)c3)C2)n1` (stereo not given) returned an RP-LC retention time of 927 s.

On to `CC(C)c1cc(C(=O)Nc2ccc(F)cc2)nc2ccnn12`, for which the RP-LC retention time came to 1090 s.

Compound `COc1cccc(C(=O)NCCCn2cccc2)c1` returned an RP-LC retention time of 749 s.

`CCCNC(=O)C1CCN(c2ccc(SCC(=O)Nc3ccc(Cl)cc3)nn2)CC1`: the RP-LC retention time was 655 s.

Regarding `COc1cccc(CNC(=O)N2CCCC2c2cc(C(C)C)on2)c1` (stereo not given), the RP-LC retention time was determined as 832 s.

The compound `O=C(NCCCN1CCCCC1)C1=C2CCCN2c2ccc(F)cc2S1(=O)=O` came in with an RP-LC retention time of 606 s.

`Cc1cc(C)cc(N2CCC(N)C2=O)c1` (stereo not given) had an RP-LC retention time of 605 s.

Turning to `O=C(NCC(F)(F)F)c1ccc(N2CCCC2)nn1`, the RP-LC retention time was found to be 570 s.

`CCOC(=O)C1CCCN(CC(=O)Nc2nc(-c3ccccc3)cs2)C1` (stereo not given) registered an RP-LC retention time of 690 s.

In turn, `Clc1ccc(-c2nnc(-c3cccnc3NCc3cccs3)o2)cc1` returned an RP-LC retention time of 1310 s.

On to `CCN1CCCC1CNC(=O)C1CCN(S(=O)(=O)c2ccc3c(c2)sc(=O)n3C)CC1` (stereo not given), for which the RP-LC retention time turned out to be 794 s.

With `COC(=O)COc1cc(-c2ccccc2)nc2ccc(NS(=O)(=O)c3ccccc3)cc12`, the RP-LC retention time was 774 s.

`COc1ccc(OC)c(NC(=O)N2C[C@@H](F)C[C@H]2C(=O)N2CCc3ccccc3C2)c1` came in with an RP-LC retention time of 826 s.

`Cc1ccc(NC(=O)Cn2c(=O)c(CCC(=O)NC3CCCC3)nc3ccccc32)c(C)c1` had an RP-LC retention time of 841 s.

Turning to `CC(=O)N1CCc2cc(N3CC(C(=O)NCc4ccccc4Cl)CC3=O)ccc21` (stereo not given), the RP-LC retention time was 708 s.

Compound `Cc1cc(-c2nnc(C3CCC3)o2)c(C)n1CC(=O)NCc1ccccc1C(F)(F)F` displayed an RP-LC retention time of 960 s.

Consider `O=C(Nc1cccc(Cl)c1)C(=O)c1cn(CC(=O)N2CCOCC2)c2ccccc12`, for which the RP-LC retention time is 997 s.

In the case of `CCN1CCN(c2nccc(-c3cnc4nc(-c5ccccc5)nn4c3C)n2)CC1`, the RP-LC retention time turned out to be 633 s.

Regarding `O=C(CCc1c(-c2ccc(F)cc2)nc2ccccn12)Nc1cccc(Cl)c1`, the RP-LC retention time came out at 730 s.

The compound `CCNC(=O)c1nc(C(=O)NCc2ccc(F)c(Cl)c2)cs1` returned an RP-LC retention time of 819 s.

On to `COc1ccc(N2CCN(C(=O)C3CC(=O)N(c4n[nH]c5cccc(F)c45)C3)CC2)cc1` (stereo not given), for which the RP-LC retention time was 662 s.

Turning to `OC[C@@H]1CN(Cc2cccc(OC(F)(F)F)c2)C[C@H]1c1ccncc1`, the RP-LC retention time is 570 s.

`O=S(=O)(NC1CCCCCC1)c1cc(-c2cc(C(F)(F)F)on2)cs1` came in with an RP-LC retention time of 1200 s.

The compound `CCC(=O)N1CCc2cc(N3CC(C(=O)NCc4ccncc4)CC3=O)ccc21` (stereo not given) showed an RP-LC retention time of 578 s.

Consider `COCCC(=O)N1CCC2(CCC2O)CC1` (stereo not given), for which the RP-LC retention time was found to be 593 s.

`CCc1ccc(-c2ccc(-n3nc(C)c(S(=O)(=O)N4CCCC4)c3C)nn2)cc1` returned an RP-LC retention time of 1170 s.

`CCn1cc(S(=O)(=O)N2[C@H]3CC[C@@H]2c2cnc(-c4ccccc4)nc2C3)cn1`: the RP-LC retention time worked out at 868 s.

On to `COc1ccc(NC(=O)N2CCN(c3cc(-c4ccc(OC)c(OC)c4)ncn3)CC2)c(OC)c1`, for which the RP-LC retention time came to 660 s.

As for `CCOC(=O)c1cnc2c(-c3cccc(Cl)c3)c(C)nn2c1N`, the RP-LC retention time is 1180 s.

Compound `COc1ccc(-c2nnc(-c3ccc(C)c(S(=O)(=O)N4CCN(C)CC4)c3)o2)cc1OC` yielded an RP-LC retention time of 646 s.

The compound `CCOC(=O)C1CCN(C(=O)c2ccc3c(c2)N(CC(=O)N2CCCC2)C(=O)CO3)CC1` showed an RP-LC retention time of 678 s.

In turn, `Cc1ccc(-c2csc(NC(=O)c3ccc(C)c(C)c3)n2)cc1` showed an RP-LC retention time of 1240 s.

Compound `Cc1ccsc1C(=O)NCC12CCCC=C1N(C)C(=O)CC2` (stereo not given) registered an RP-LC retention time of 785 s.

In turn, `Cc1ccc(N2CCC(NC(=O)NC(C)(C)C)C2=O)cc1` (stereo not given) displayed an RP-LC retention time of 761 s.

The compound `C=CCn1c(=O)c(=O)n(Cc2ccc(C(=O)N3CCN(c4ccccn4)CC3)cc2)c2ccccc21` returned an RP-LC retention time of 626 s.

For `COc1ccc(NC(=O)c2c(O)c3sccc3n(C)c2=O)cc1Cl`, the RP-LC retention time turned out to be 1170 s.

`Cc1ccc(NC(=O)Cn2c(=O)n(-c3ccccc3)c(=O)c3c2cc(C)n3C)c(Cl)c1` had an RP-LC retention time of 927 s.

`COc1ccc2c(c1)C1(CCN(C(=O)c3ccccc3OC)C1)C(=O)N2C` (stereo not given) gave an RP-LC retention time of 725 s.

In the case of `CC(Oc1cccc(Cl)c1)C(=O)N1CCN(c2cc(-c3cccs3)[nH]n2)CC1` (stereo not given), the RP-LC retention time was determined as 888 s.

With `Cc1ccc(-c2cnn(CC(=O)Nc3ccc(Br)cc3)c(=O)n2)cc1`, the RP-LC retention time stood at 907 s.

The compound `COc1cccc(Cn2nc3c(S(=O)(=O)N4CCc5ccccc5C4)cccn3c2=O)c1` showed an RP-LC retention time of 943 s.
